Assay results: patent US20060069132A1, “Azolecarboxamide herbicides” (priority 2004, published 2006)

Legend:
[1] = system: blackgrass; experiment: Test B postemergence herbicide test; assay type: in vivo, Alopecurus myosuroides
Summary of the method: (§1)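 Scale 0–100: zero equals no visible effect, 100 complete control, judged by eye relative to controls. Timing: 13 to 15 days in greenhouse post-treatment. Growth stage at spraying: two leaves (paddy) or one to four leaves, 2–18 cm (postemergence).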

[2] = system: barnyardgrass; experiment: Test B pre-/postemergence herbicide test; assay type: in vivo, Echinochloa crus-galli
Summary of the method: (§2)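 Formulation: non-phytotoxic solvent mix with surfactant. Timing: preemergence on seed and postemergence on 2–18 cm plants, applied concurrently. Readout after 13–15 d greenhouse: visual 0–100 control rating against controls.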

[3] = system: morningglory; experiment: Test B pre-/postemergence herbicide test; assay type: in vivo, Ipomoea coccinea; conditions: for Morningglory plant response rating: scale 0 (no effect) to 100 (complete control)
Summary of the method: as §2

[4] = system: ducksalad; experiment: Test B flooded paddy test; assay type: in vivo, Heteranthera limosa; conditions: 1000 g ai/ha, scale 0 to 100 (0 no effect, 100 complete control)
Summary of the method: as §1

[5] = system: wild oat; experiment: Test B postemergence herbicide test; assay type: in vivo, Avena fatua; conditions: scale 0 (no effect) to 100 (complete control)
Summary of the method: (§3)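 Greenhouse test; postemergence application to plants at 1–4 leaves (2–18 cm); paddy species at 2 leaves; evaluated visually vs controls at 13–15 days; scale 0–100 (100 = complete control).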

[6] = system: large crabgrass; experiment: Test B pre-/postemergence herbicide test; assay type: in vivo, Digitaria sanguinalis
Summary of the method: (§4)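 Pre: seeds sown, then sprayed. Post: 1–4-leaf plants (2–18 cm) sprayed at the same time. Paddy: flooded, treated at 2-leaf stage. Formulation: non-phytotoxic solvent with surfactant. Greenhouse 13–15 days; visual 0–100 score relative to controls.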

[7] = system: rice; experiment: Test B flooded paddy test; assay type: in vivo, Oryza sativa; conditions: 1000 g ai/ha, scale 0 to 100 (0 no effect, 100 complete control)
Summary of the method: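 Plants grow to 1- to 4-leaf stage (2–18 cm) for postemergence spraying, or to 2-leaf stage for the paddy test. Formulated compound is applied. Greenhouse holding lasts 13–15 days. Response is scored visually relative to controls, 0 no effect to 100 complete control; a dash means no result.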

[8] = system: cocklebur; experiment: Test B pre-/postemergence herbicide test; assay type: in vivo, Xanthium strumarium
Summary of the method: as §2

[9] = system: pigweed; experiment: Test B pre-/postemergence herbicide test; assay type: in vivo, Amaranthus retroflexus
Summary of the method: as §4

[10] = system: barnyardgrass; experiment: Test B flooded paddy test; assay type: in vivo, Echinochloa crus-galli; conditions: 1000 g ai/ha, scale 0 to 100 (0 no effect, 100 complete control)
Summary of the method: as §1

[11] = system: Surinam grass; experiment: Test B pre-/postemergence herbicide test; assay type: in vivo, Urochloa decumbens
Summary of the method: as §4

[12] = system: giant foxtail; experiment: Test B pre-/postemergence herbicide test; assay type: in vivo, Setaria faberi
Summary of the method: as §4

[13] = system: corn; experiment: Test B pre-/postemergence herbicide test; assay type: in vivo, Zea mays
Summary of the method: as §4

[14] = system: lambsquarters; experiment: Test B pre-/postemergence herbicide test; assay type: in vivo, Chenopodium album
Summary of the method: as §4

[15] = system: small flower umbrella sedge; experiment: Test B flooded paddy test; assay type: in vivo, Cyperus difformis; conditions: 1000 g ai/ha, scale 0 to 100 (0 no effect, 100 complete control)
Summary of the method: as §1

[16] = system: wheat; experiment: Test B postemergence herbicide test; assay type: in vivo, Triticum aestivum; parameters: key to Wheat plant response rating: 0 = no effect, 100 = complete control
Summary of the method: as §3

[17] = 125 g ai/ha; visual rating, scale 0 (no effect) to 100 (complete control); postemergence
[18] = postemergence, 500 g ai/ha; scale 0 to 100, 0 is no effect, 100 is complete control
[19] = 125 g ai/ha; 0 is no effect, 100 is complete control; preemergence
[20] = 125 g ai/ha, 0 is no effect, 100 is complete control, preemergence
[21] = 125 g ai/ha, visual rating, postemergence
[22] = 125 g ai/ha, visual rating, scale 0 (no effect) to 100 (complete control), postemergence
[23] = Postemergence, 500 g ai/ha, scale 0 (no effect) to 100 (complete control)
[24] = Postemergence, 500 g ai/ha; visual rating after 13 to 15 days, scale 0 (no effect) to 100 (complete control)
[25] = postemergence, 125 g ai/ha; visual rating, scale 0 (no effect) to 100 (complete control)
[26] = 500 g ai/ha; visual rating 0-100, 0 no effect, 100 complete control; preemergence
[27] = preemergence, 125 g ai/ha; 0 to 100 scale, 0 is no effect, 100 is complete control
[28] = preemergence, 125 g ai/ha, 0 to 100 scale, 0 is no effect, 100 is complete control
[29] = postemergence, 125 g ai/ha, visual rating
[30] = 500 g ai/ha, visual rating 0-100, 0 no effect, 100 complete control, preemergence
[31] = Postemergence, 500 g ai/ha, visual rating after 13 to 15 days, scale 0 (no effect) to 100 (complete control)
[32] = postemergence, 125 g ai/ha, visual rating, scale 0 (no effect) to 100 (complete control)
[33] = postemergence, 500 g ai/ha; visual rating, scale 0 (no effect) to 100 (complete control)
[34] = 125 g ai/ha; 0 = no effect, 100 = complete control; preemergence
[35] = 125 g ai/ha, 0 = no effect, 100 = complete control, preemergence
[36] = postemergence, 500 g ai/ha, visual rating
[37] = postemergence, 500 g ai/ha, visual rating, scale 0 (no effect) to 100 (complete control)

## CCOC(=O)c1cccc(NC(=O)c2nn(C(C)(C)CC)nc2CC)c1 [Compound 375]
[1]; [17]
  Blackgrass plant response rating: 30
[1]; [18]
  Blackgrass plant response rating: 40
[2]; [19]
  Plant response rating (0 to 100 scale), Barnyardgrass: 20
[2]; [17]
  Barnyardgrass plant response rating: 30
[2]; [18]
  Barnyardgrass plant response rating: 70
[3]; [20]
  Plant response rating (0 to 100 scale), Morningglory: 10
[3]; [21]
  Morningglory plant response rating: 20
[3]; Postemergence, 500 g ai/ha
  Morningglory plant response rating: 40
[4]
  Ducksalad plant response rating: 20
[5]; [21]
  Oat, Wild plant response rating: 40
[5]; Postemergence, 500 g ai/ha
  Oat, Wild plant response rating: 50
[6]; [19]
  Plant response rating (0 to 100 scale), Crabgrass, Large: 20
[6]; [17]
  Crabgrass, Large plant response rating: 20
[6]; [18]
  Crabgrass, Large plant response rating: 40
[7]
  Rice plant response rating: 40
[8]; [19]
  Plant response rating (0 to 100 scale), Cocklebur: 0
[8]; [17]
  Cocklebur plant response rating: 30
[8]; [18]
  Cocklebur plant response rating: 60
[9]; [20]
  Plant response rating (0 to 100 scale), Pigweed: 70
[9]; [22]
  Pigweed plant response rating: 40
[9]; [23]
  Pigweed plant response rating: 80
[10]
  Barnyardgrass plant response rating: 40
[11]; [20]
  Plant response rating (0 to 100 scale), Surinam Grass: 40
[11]; [22]
  Surinam Grass plant response rating: 20
[11]; [23]
  Surinam Grass plant response rating: 30
[12]; [19]
  Plant response rating (0 to 100 scale), Foxtail, Giant: 50
[12]; [17]
  Foxtail, Giant plant response rating: 40
[12]; [18]
  Foxtail, Giant plant response rating: 70
[13]; [19]
  Plant response rating (0 to 100 scale), Corn: 0
[13]; [17]
  Corn plant response rating: 20
[13]; [18]
  Corn plant response rating: 40
[14]; [20]
  Plant response rating (0 to 100 scale), Lambsquarters: 50
[14]; [22]
  Lambsquarters plant response rating: 20
[14]; [23]
  Lambsquarters plant response rating: 40
[15]
  Sedge, Umbrella plant response rating: 80
[16]; [22]
  Wheat plant response rating: 30
[16]; 500 g ai/ha, scale 0 to 100, 0 no effect, 100 complete control, preemergence
  Wheat plant response rating: 30
[16]; [23]
  Wheat plant response rating: 40

## C=Cn1nc(C(C)(C)C)cc1C(=O)Nc1cccc(C(C)=NO)c1 [Compound 114]
[1]; [24]
  Plant response rating, Blackgrass: 30
[1]; [25]
  Blackgrass plant response rating: 10
[2]; [26]
  Plant response rating, Barnyardgrass: 80
[2]; [24]
  Plant response rating, Barnyardgrass: 30
[2]; [25]
  Barnyardgrass plant response rating: 20
[2]; [27]
  Plant response rating, Barnyardgrass: 50
[3]; [28]
  Plant response rating, Morningglory: 10
[4]; visual rating, 13 to 15 days
  Ducksalad plant response rating: 80
[5]; Postemergence, 500 g ai/ha, visual rating after 13 to 15 days
  Plant response rating, Oat, Wild: 10
[5]; [29]
  Oat, Wild plant response rating: 10
[6]; [26]
  Plant response rating, Crabgrass, Large: 100
[6]; [24]
  Plant response rating, Crabgrass, Large: 40
[6]; [25]
  Crabgrass, Large plant response rating: 30
[6]; [27]
  Plant response rating, Crabgrass, Large: 90
[7]; visual rating, 13 to 15 days
  Rice plant response rating: 50
[8]; [26]
  Plant response rating, Cocklebur: 10
[8]; [24]
  Plant response rating, Cocklebur: 90
[8]; [25]
  Cocklebur plant response rating: 80
[8]; [27]
  Plant response rating, Cocklebur: 10
[9]; [30]
  Plant response rating, Pigweed: 100
[9]; [31]
  Plant response rating, Pigweed: 100
[9]; [32]
  Pigweed plant response rating: 90
[9]; [28]
  Plant response rating, Pigweed: 80
[10]; visual rating, 13 to 15 days
  Barnyardgrass plant response rating: 70
[11]; [30]
  Plant response rating, Surinam Grass: 30
[11]; [31]
  Plant response rating, Surinam Grass: 20
[11]; [32]
  Surinam Grass plant response rating: 10
[11]; [28]
  Plant response rating, Surinam Grass: 20
[12]; [26]
  Plant response rating, Foxtail, Giant: 90
[12]; [24]
  Plant response rating, Foxtail, Giant: 30
[12]; [25]
  Foxtail, Giant plant response rating: 30
[12]; [27]
  Plant response rating, Foxtail, Giant: 50
[13]; [26]
  Plant response rating, Corn: 10
[13]; [27]
  Plant response rating, Corn: 0
[14]; [30]
  Plant response rating, Lambsquarters: 100
[14]; [31]
  Plant response rating, Lambsquarters: 90
[14]; [32]
  Lambsquarters plant response rating: 80
[14]; [28]
  Plant response rating, Lambsquarters: 100
[15]; visual rating, 13 to 15 days
  Sedge, Umbrella plant response rating: 90
[16]; [31]
  Plant response rating, Wheat: 20
[16]; [32]
  Wheat plant response rating: 20

## CC(=NO)c1cccc(NC(=O)c2sc(C(C)(C)C)nc2C)c1 [Compound 195]
[1]; [25]
  Blackgrass plant response rating: 0
[1]; [33]
  Blackgrass plant response rating: 10
[2]; [34]
  Barnyardgrass plant response rating (0 to 100 scale): 40
[2]; [26]
  Plant response rating, Barnyardgrass: 90
[2]; [25]
  Barnyardgrass plant response rating: 40
[2]; [33]
  Barnyardgrass plant response rating: 90
[3]; [35]
  Morningglory plant response rating (0 to 100 scale): 10
[3]; [30]
  Plant response rating, Morningglory: 40
[3]; [29]
  Morningglory plant response rating: 0
[3]; [36]
  Morningglory plant response rating: 60
[4]; visual rating, 13 to 15 days
  Ducksalad plant response rating: 40
[5]; [29]
  Oat, Wild plant response rating: 10
[5]; [36]
  Oat, Wild plant response rating: 20
[6]; [34]
  Crabgrass, Large plant response rating (0 to 100 scale): 80
[6]; [26]
  Plant response rating, Crabgrass, Large: 100
[6]; [25]
  Crabgrass, Large plant response rating: 20
[6]; [33]
  Crabgrass, Large plant response rating: 50
[7]; visual rating, 13 to 15 days
  Rice plant response rating: 30
[8]; [34]
  Cocklebur plant response rating (0 to 100 scale): 0
[8]; [26]
  Plant response rating, Cocklebur: 0
[8]; [25]
  Cocklebur plant response rating: 30
[8]; [33]
  Cocklebur plant response rating: 60
[9]; [35]
  Pigweed plant response rating (0 to 100 scale): 90
[9]; [30]
  Plant response rating, Pigweed: 90
[9]; [32]
  Pigweed plant response rating: 70
[9]; [37]
  Pigweed plant response rating: 80
[10]; visual rating, 13 to 15 days
  Barnyardgrass plant response rating: 60
[11]; [35]
  Surinam Grass plant response rating (0 to 100 scale): 10
[11]; [30]
  Plant response rating, Surinam Grass: 30
[11]; [32]
  Surinam Grass plant response rating: 10
[11]; [37]
  Surinam Grass plant response rating: 30
[12]; [34]
  Foxtail, Giant plant response rating (0 to 100 scale): 20
[12]; [26]
  Plant response rating, Foxtail, Giant: 60
[12]; [25]
  Foxtail, Giant plant response rating: 20
[12]; [33]
  Foxtail, Giant plant response rating: 20
[13]; [34]
  Corn plant response rating (0 to 100 scale): 0
[13]; [26]
  Plant response rating, Corn: 0
[13]; [25]
  Corn plant response rating: 20
[13]; [33]
  Corn plant response rating: 30
[14]; [35]
  Lambsquarters plant response rating (0 to 100 scale): 0
[14]; [30]
  Plant response rating, Lambsquarters: 80
[14]; [32]
  Lambsquarters plant response rating: 0
[14]; [37]
  Lambsquarters plant response rating: 60
[15]; visual rating, 13 to 15 days
  Sedge, Umbrella plant response rating: 50
[16]; [32]
  Wheat plant response rating: 10
[16]; [37]
  Wheat plant response rating: 20
